The record followed here is US20100331409A1, “Use of Methyl Cinnamate in the Inhibition of Candida Albicans Biofilms” (Barak Biotechnology Co., Ltd., priority 2009, published 2010).

The structures appear in SMILES notation.

Common to all, as to type: cell-based
Experiment [1] deals with biofilm of Candida albicans. In words: Inhibition of biofilm of Candida albicans on polystyrene (XTT and crystal violet). The note with it: concentration ranging from 0.015% to 0.125%; added 4 hours after adhesion, cultured at 37° C. to 48 hours; XTT and CV. Here is the method:
A single colony of Candida albicans was selected from YPD plate (1% (w/v) yeast extract, 2% (w/v) peptone, 2% (w/v) dextrose and 1.5% (w/v) agar), seeded in YPD liquid medium (1% (w/v) yeast extract, 2% (w/v) peptone and 2% (w/v) dextrose) and then cultured at 30° C. and 100 rpm for 16 hours. The YPD medium was washed out and the amounts of the Candida albicans cells were counted using Hematocyte Counter. The cells were diluted with RPMI 1640 medium (Gibco, Invitroge, Calif., U.S.A.) to 5×10^5 cells/ml. 200 μL of 5×10^5 cells/ml medium were added to 96-well plate and placed at 37° C. for 1 hour so that the cells could adhere to the bottom of the plate. The non-adhered cells were washed out with phosphate buffer. The material of the 96-well plate was polystyrene, which is a common material for medical device such as syringe. Subsequently, RPMI 1640 medium was added to the plate and cultured at 37° C. […] The numbers of cells in the biofilm were determined by a colorimetric assay using XTT [2,3-Bis(2-methoxy-4-nitro-5-sulfo-phenyl)-2H-tetrazolium-5-carboxanilide] (Sigma, Mo., U.S.A.) and their biomass was determined by crystal violet to find out the mature development of biofilm (Ramage G et al., Inhibition of Candida albicans Biofilm Formation by Farnesol, A Quorum-Sensing Molecule. Appl Environ Microbiol 2002, 68: 5459-5463). […]
A general note: Tetrazolium dyes change colour on reduction, which living cells bring about.

Experiment [2] deals with Candida albicans. Briefly: MIC assay against Candida albicans. The note with it: 1×10^5 CFU/ml, 96-well plates, 37° C. for 16 hours. The protocol:
(§1) A single colony of Candida albicans was selected from YPD plate, seeded in YPD liquid medium and then cultured at 30° C. and 100 rpm for 16 hours. The medium was diluted to 1×10^5 CFU/ml. The diluted medium was added to 96-well plates containing different concentrations of methyl cinnamate and essential oil of Zanthoxylum armatum (0.00625% to 1% for methyl cinnamate and 0.025% to 0.5% for essential oil) and cultured at 37° C. for 16 hours.

Experiment [3] relates to Candida albicans. Briefly: MFC assay against Candida albicans. The note with it: 1×10^5 CFU/ml, 96-well plates, 37° C. for 16 hours. Here is the method: as §1

`COC(=O)/C=C/c1ccccc1` [methyl cinnamate]: in experiment [1], the biofilm inhibited lay within 10 to 60%. In addition, the MIC with Candida albicans [2] was found to be 0.1%. For the same molecule, the MFC in the experiment on Candida albicans [3] turned out to be 0.8%.
